From ChEMBL document CHEMBL5653634, “The effect of the PKC inhibitor GF109203X on the release of Ca2+ from internal stores and Ca2+ entry in DDT1 MF-2 cells” (1996) come the findings set out here.

A short description of experiment [1]: Inhibition of PKC in golden hamster DDT1-MF2 cells by measuring calcium 2+ uptake at 10 uM preincubated for 45 mins followed by extracellular calcium 2+ addition measured after 5 mins by liquid scintillation counting analysis (reference value: 100 +/- 6 %). The arrangement: species or system Mesocricetus auratus; scale not given: the % may be the effect or the level left. The following applies: time 50 min.

Experiment [2] is described as follows: Inhibition of PKC in golden hamster DDT1-MF2 cells by measuring calcium 2+ uptake at 5 uM preincubated for 45 mins followed by extracellular calcium 2+ and histamine addition measured after 5 mins by liquid scintillation counting analysis (reference value: 100 +/- 6 %). The following applies: time 50 min. More on the design: species or system Mesocricetus auratus; scale not given: the % may be the effect or the level left.

Experiment [3] is described as follows: Inhibition of PKC in golden hamster DDT1-MF2 cells assessed as decrease in Ins(1,4,5)P3-induced calcium 2+ efflux at 5 uM incubated for 14 mins by liquid scintillation counting analysis relative to control. The following applies: Mesocricetus auratus, DDT1-MF2, 14 min.
A short description of experiment [4]: Inhibition of PKC in golden hamster DDT1-MF2 cells by measuring cytoplasmic calcium concentration at 5 uM incubated for 10 mins. More on the design: species or system Mesocricetus auratus. Particulars: […].
A short description of experiment [5]: Inhibition of PKC in golden hamster DDT1-MF2 cells by measuring basal cytoplasmic calcium concentration at 5 uM incubated for 45 mins in absence of extracellular calcium 2+. Particulars: 0.75 h. The arrangement: species or system Mesocricetus auratus.
The nature of experiment [6]: Inhibition of PKC in golden hamster DDT1-MF2 cells by measuring calcium 2+ uptake at 5 uM preincubated for 45 mins followed by extracellular calcium 2+ addition measured after 5 mins by liquid scintillation counting analysis (reference value: 100 +/- 6 %). The arrangement: species or system Mesocricetus auratus; scale not given: the % may be the effect or the level left. Particulars: time 50 min.

Experiment [7] is described as follows: Inhibition of PKC in golden hamster DDT1-MF2 cells assessed as decrease in thapsigargin-induced calcium release by measuring basal cytoplasmic calcium concentration at 5 uM incubated for 45 mins followed by thapsigargin and LaCl3 addition measured after 5 mins. The arrangement: species or system Mesocricetus auratus. Particulars: time 50 min.

For experiment [8], the system named is DDT1-MF2. The experiment in a line: Inhibition of PKC in golden hamster DDT1-MF2 cells assessed as increase in inositol 1,4,5-trisphosphate formation at 5 uM incubated for 45 mins by liquid scintillation counting analysis. It is filed as cell-based. The following applies: Mesocricetus auratus.
Experiment [9] can be described thus: Inhibition of PKC in golden hamster DDT1-MF2 cells assessed as decrease in histamine-induced calcium release by measuring cytoplasmic calcium concentration at 5 uM incubated for 45 mins in presence of LaCl3. The arrangement: species or system Mesocricetus auratus. The following applies: 0.75 h.
Experiment [10] in a line: Inhibition of PKC in golden hamster DDT1-MF2 cells assessed as inhibition of histamine-induced calcium response by measuring cytoplasmic calcium concentration at 5 uM preincubated for 45 mins in presence of extracellular calcium 2+ followed by histamine stimulation measured after 5 mins. The arrangement: species or system Mesocricetus auratus. Particulars: time 50 min.

The nature of experiment [11]: Inhibition of PKC in golden hamster DDT1-MF2 cells assessed as decrease in calcium 2+ efflux at 5 uM incubated for 10 mins by liquid scintillation counting analysis relative to control. The following applies: Mesocricetus auratus, DDT1-MF2, 10 min.
The nature of experiment [12]: Inhibition of PKC in golden hamster DDT1-MF2 cells by measuring calcium 2+ uptake at 5 uM preincubated for 45 mins followed by extracellular calcium 2+ and thapsigargin addition measured after 5 mins by liquid scintillation counting analysis (reference value: 100 +/- 6 %). Particulars: time 50 min. The arrangement: species or system Mesocricetus auratus; scale not given: the % may be the effect or the level left.

In experiment [13] the test system is DDT1-MF2. The experiment in a line: Inhibition of PKC in golden hamster DDT1-MF2 cells assessed as decrease in histamine-induced inositol 1,4,5-trisphosphate formation at 5 uM incubated for 45 mins followed by histamine stimulation by liquid scintillation counting analysis. It is filed as cell-based. The following applies: Mesocricetus auratus.
A short description of experiment [14]: Inhibition of PKC in golden hamster DDT1-MF2 cells by measuring basal cytoplasmic calcium concentration at 5 uM incubated for 45 mins in presence of extracellular calcium 2+. The arrangement: species or system Mesocricetus auratus. The following applies: 0.75 h.
Experiment [15] in a line: Inhibition of PKC in golden hamster DDT1-MF2 cells by measuring cytoplasmic calcium concentration at 5 uM incubated for 10 mins in presence of LaCl3. More on the design: species or system Mesocricetus auratus. Particulars: […].
Experiment [16] can be described thus: Inhibition of PKC in golden hamster DDT1-MF2 cells assessed as inhibition of histamine-induced calcium response by measuring cytoplasmic calcium concentration at 5 uM preincubated for 45 mins in absence of extracellular calcium 2+ followed by histamine stimulation. The arrangement: species or system Mesocricetus auratus. The following applies: 0.75 h.

Experiment [17] can be described thus: Inhibition of PKC in golden hamster DDT1-MF2 cells assessed as inhibition of histamine-induced calcium response by measuring maximal cytoplasmic calcium concentration at 5 uM preincubated for 45 mins in presence of extracellular calcium 2+ followed by histamine stimulation. More on the design: species or system Mesocricetus auratus. The following applies: 0.75 h.

A short description of experiment [18]: Inhibition of PKC in golden hamster DDT1-MF2 cells assessed as decrease in thapsigargin-induced calcium release by measuring cytoplasmic calcium concentration at 5 uM incubated for 45 mins followed by thapsigargin, PMA and LaCl3 addition measured after 48 hrs. The arrangement: species or system Mesocricetus auratus. Particulars: time 2925 min, 48.75 h.

The subject of experiment [19] is DDT1-MF2. As to the kind of experiment: Inhibition of PKC in golden hamster DDT1-MF2 cells assessed as decrease in histamine-induced calcium release by measuring cytoplasmic calcium concentration incubated for 45 mins followed by histamine and LaCl3 addition. It is filed as cell-based. Particulars: Mesocricetus auratus.
The subject of experiment [20] is DDT1-MF2. The experiment in a line: Inhibition of PKC in golden hamster DDT1-MF2 cells assessed as decrease in histamine-induced inositol 1,4,5-trisphosphate formation at 5 uM incubated for 45 mins in presence of PMA followed by histamine stimulation by liquid scintillation counting analysis. The experiment is classed as cell-based. The following applies: Mesocricetus auratus.

Experiment [21] concerns DDT1-MF2. As to the kind of experiment: Inhibition of PKC in golden hamster DDT1-MF2 cells assessed as decrease in thapsigargin-induced calcium release by measuring cytoplasmic calcium concentration at 5 uM incubated for 45 mins followed by thapsigargin and LaCl3 addition. Particulars: Mesocricetus auratus. It is filed as cell-based.
The nature of experiment [22]: Inhibition of PKC in golden hamster DDT1-MF2 cells assessed as decrease in thapsigargin-induced calcium release by measuring cytoplasmic calcium concentration at 5 uM incubated for 45 mins followed by thapsigargin and LaCl3 addition measured after 5 mins. The following applies: time 50 min. More on the design: species or system Mesocricetus auratus.

Experiment [23] is described as follows: Inhibition of PKC in golden hamster DDT1-MF2 cells by measuring inositol 1,4,5-trisphosphate level measured per 10^6 cells at 1 uM incubated for 48 hrs. The arrangement: species or system Mesocricetus auratus. The following applies: […].
Experiment [24] can be described thus: Inhibition of PKC in golden hamster DDT1-MF2 cells assessed as inhibition of histamine-induced calcium response by measuring cytoplasmic calcium concentration at 0.5 uM preincubated for 5 mins in absence of extracellular calcium 2+ followed by histamine stimulation. The arrangement: species or system Mesocricetus auratus. The following applies: […].

The nature of experiment [25]: Inhibition of PKC in golden hamster DDT1-MF2 cells by measuring basal cytoplasmic calcium concentration at 0.5 uM incubated for 5 mins in presence of extracellular calcium 2+. The arrangement: species or system Mesocricetus auratus. The following applies: […].
A short description of experiment [26]: Inhibition of PKC in golden hamster DDT1-MF2 cells assessed as inhibition of histamine-induced calcium response by measuring maximal cytoplasmic calcium concentration at 0.5 uM preincubated for 5 mins in presence of extracellular calcium 2+ followed by histamine stimulation. More on the design: species or system Mesocricetus auratus. Particulars: […].

Experiment [27] in a line: Inhibition of PKC in golden hamster DDT1-MF2 cells assessed as inhibition of histamine-induced calcium response by measuring maximal cytoplasmic calcium concentration at 0.5 uM preincubated for 5 mins in presence of extracellular calcium 2+ followed by histamine stimulation measured after 5 mins. Particulars: time 10 min. More on the design: species or system Mesocricetus auratus.

Experiment [28] can be described thus: Inhibition of PKC in golden hamster DDT1-MF2 cells by measuring basal cytoplasmic calcium concentration at 0.5 uM incubated for 5 mins in absence of extracellular calcium 2+. Particulars: […]. The arrangement: species or system Mesocricetus auratus.
Experiment [29] in a line: Inhibition of PKC in golden hamster DDT1-MF2 cells assessed as decrease in histamine-induced inositol 1,4,5-trisphosphate formation by measuring inositol 1,4,5-trisphosphate level measured per 10^6 cells at 1 uM incubated for 48 hrs followed by histamine addition. More on the design: species or system Mesocricetus auratus. Particulars: […].

For experiment [30], the system named is DDT1-MF2. As to the kind of experiment: Inhibition of PKC in golden hamster DDT1-MF2 cells assessed as decrease in histamine-induced inositol 1,4,5-trisphosphate formation at 1 uM incubated for 5 mins followed by histamine stimulation by liquid scintillation counting analysis. The experiment is classed as cell-based. Particulars: Mesocricetus auratus.
Experiment [31] can be described thus: Inhibition of PKC in golden hamster DDT1-MF2 cells by measuring calcium 2+ uptake at 1 uM preincubated for 45 mins followed by extracellular calcium 2+ addition measured after 5 mins by liquid scintillation counting analysis (reference value: 100 +/- 6 %). More on the design: species or system Mesocricetus auratus; scale not given: the % may be the effect or the level left. Particulars: time 50 min.

Molecules are shown by their SMILES. The source made the active and inactive calls. The rule behind the calls is not given here.

For the molecule `Cn1cc(C2=C(c3cn(CCCSC(=N)N)c4ccccc34)C(=O)NC2=O)c2ccccc21` [BISINDOLYLMALEIMIDE IX], in [1], the Activity is 135%.
A word on the inhibition: it is how much of the control response was suppressed. With `CN(C)CCCn1cc(C2=C(c3c[nH]c4ccccc34)C(=O)NC2=O)c2ccccc21` [GF-109203], the Activity in experiment [2] stood at 155%; in [4], 9 nM; in experiment [5], 82 nM; in experiment [6], 167%; in [7], 105 nM; in experiment [9] it was 38 nM. Also, the Activity in experiment [10] was found to be 42 nM; in experiment [12], 238%; in experiment [14] it was 102 nM; in experiment [15] it was 7 nM; in experiment [16], 40 nM; in experiment [17] it was 63 nM. The Activity in experiment [18] came to 73 nM; in [22], 68 nM. The inhibition at 5 µM was 58% in experiment [3] and 93% in experiment [11]. Moreover, the inhibition result with DDT1-MF2 [8] and in the experiment on DDT1-MF2 [21] was “Active” in each case. In addition, the inhibition result in the experiment on DDT1-MF2 [13] and in the experiment on DDT1-MF2 [20] was “inactive” throughout. Further, in the experiment on DDT1-MF2 [19], the inhibition entry is “Dose-Dependent Effect”.
Turning to `CCCCCCCCCCCCCC(=O)O[C@@H]1[C@@H](C)[C@@]2(O)[C@@H](C=C(CO)C[C@]3(O)C(=O)C(C)=C[C@@H]23)[C@@H]2C(C)(C)[C@]12OC(C)=O` [PHORBOL MYRISTATE ACETATE], the Activity in [23] came to 11.6 pmol; in experiment [24], 53 nM; in experiment [25] it was 129 nM; in [26], 50 nM; in experiment [27] it was 0 nM; in [28] it was 80 nM. The Activity in experiment [29] came to 11.5 pmol. The inhibition result with DDT1-MF2 [30] is “Active”.
Regarding `C/C=C(/C)C(=O)O[C@H]1C(C)=C2[C@H]([C@@H]1OC(=O)CCCCCCC)[C@@](C)(OC(C)=O)C[C@H](OC(=O)CCC)[C@@]1(O)[C@H]2OC(=O)[C@@]1(C)O` [THAPSIGARGIN], in [31], the Activity stood at 221%.
